Data as given in patent publication US20260109712A1, “RIFAMYCINS FOR NONTUBERCULOUS MYCOBACTERIA” (priority 2022, published 2026).
Converted amounts (≈) assume the structure as drawn.

Columns and labels:
[1] = Plasma protein binding assay (rapid equilibrium dialysis); type: in vitro ADME
Protocol: DMSO stocks were spiked into plasma to a concentration of 10,000 ng/mL. 200 μL of spiked plasma was pipetted into the sample chamber of the rapid equilibrium dialysis (RED) cartridge. 350 μL of PBS was added to the adjacent cartridge. The plate containing the RED was sealed and incubated at 37° C. on the thermomixer at 300 RPM for 4 h. After incubation, 50 μL aliquots of plasma were removed and added to 50 μL of blank plasma in a deep well plate (1:1). Similarly, 50 μL aliquots of PBS were removed and added to 50 μL of blank plasma. This created an identical matrix between buffer and non-buffer samples. Samples were processed and quantified as specified in the LC-MS/MS analytical method.

Δarr M. abscessus = assay: MIC assay, isogenic arr-deleted strain; type: cell-based, Mycobacterium abscessus; conditions: Table 10
Protocol: (§1) MIC determination was carried out in 96-well plate format as previously described.^[13-14] 96-well plates were initially set up with 100 μL of 7H9 per well. For each compound, a ten-point two-fold dilution series starting at twice the desired highest concentration was dispensed onto the 96-well plates using a Tecan D300e Digital Dispenser, with the DMSO concentration normalized to 2%. M. abscessus culture grown to mid-log phase (OD600=0.4-0.6) was diluted to OD600=0.1 (1×10^7 CFU/mL). […] Untreated control wells are included on each plate that contain bacteria suspension and 1% DMSO. Plates were sealed with parafilm, stored in boxes with wet paper towels and incubated at 37° C. with shaking (110 RPM). Plates were incubated for 3 days. To determine growth, OD600 was measured using a Tecan Infinite M200 plate reader on Day 0 and Day 3. Two biological replicates were performed. Clarithromycin was included in each experiment as a positive control.
(§2) For each well on the 96-well plate, bacterial growth was calculated by subtracting the Day 0 OD600 value from the Day 3 OD600 value. […] For compound-containing wells, percentage growth was calculated by dividing their growth values by the average drug-free bacterial growth for the compound series and multiplying by 100. For each compound series, we plotted percentage growth versus compound concentration.

M. abscessus ATCC 19977 = assay: MIC assay in 96-well plate format, wild-type strain; type: cell-based, Mycobacterium abscessus; conditions: for MICWT: Table 10; for MIC: Table 15, heterocyclic aromatic carbamates, read-out: WT Mab MIC
Protocol: as §1, §2

Compound	plasma unbound fraction ([1]; Table 10) [%]	MICΔorr (Δarr M. abscessus) [µM]	MICWT (M. abscessus ATCC 19977) [µM]	ƒu [1] [%]	plasma unbound fraction ([1]; plasma) [%]	MIC (M. abscessus ATCC 19977) [µM]
CO[C@H]1/C=C/O[C@@]2(C)Oc3c(C)c(O)c4c(c3C2=O)C2=NC3(CCN(CC(C)C)CC3)NC2=C(NC(=O)/C(C)=C/C=C/[C@H](C)[C@H](O)[C@@H](C)[C@@H](O)[C@@H](C)[C@H](OC(=O)c2ccccc2F)[C@@H]1C)C4=O [UMN23]	0.05	0.058	0.06	–	–	–
CO[C@H]1/C=C/O[C@@]2(C)Oc3c(C)c(O)c4c(c3C2=O)C2=NC3(CCN(CC(C)C)CC3)NC2=C(NC(=O)/C(C)=C/C=C/[C@H](C)[C@H](O)[C@@H](C)[C@@H](O)[C@@H](C)[C@H](OC(=O)c2ccccc2Cl)[C@@H]1C)C4=O [UMN24]	0.06	0.049	0.043	–	–	–
COc1ccccc1C(=O)O[C@H]1[C@H](C)[C@H](O)[C@H](C)[C@@H](O)[C@@H](C)/C=C/C=C(\C)C(=O)NC2=C3NC4(CCN(CC(C)C)CC4)N=C3c3c(c(O)c(C)c4c3C(=O)[C@@](C)(O/C=C/[C@H](OC)[C@H]1C)O4)C2=O [UMN29]	0.22	0.03	0.03	–	–	–
CO[C@H]1/C=C/O[C@@]2(C)Oc3c(C)c(O)c4c(c3C2=O)C2=NC3(CCN(CC(C)C)CC3)NC2=C(NC(=O)/C(C)=C/C=C/[C@H](C)[C@H](O)[C@@H](C)[C@@H](O)[C@@H](C)[C@H](OC(=O)Nc2cccc(C)c2)[C@@H]1C)C4=O [UMN35]	0.05	0.036	0.034	–	–	–
CO[C@H]1/C=C/O[C@@]2(C)Oc3c(C)c(O)c4c(c3C2=O)C2=NC3(CCN(CC(C)C)CC3)NC2=C(NC(=O)/C(C)=C/C=C/[C@H](C)[C@H](O)[C@@H](C)[C@@H](O)[C@@H](C)[C@H](OC(=O)Nc2ccccc2-c2ccccc2)[C@@H]1C)C4=O [UMN36]	–	0.05	0.035	0.02	0.02	0.035 (≈ 0.035 µg/mL)
COc1ccc(NC(=O)O[C@H]2[C@H](C)[C@H](O)[C@H](C)[C@@H](O)[C@@H](C)/C=C/C=C(\C)C(=O)NC3=C4NC5(CCN(CC(C)C)CC5)N=C4c4c(c(O)c(C)c5c4C(=O)[C@@](C)(O/C=C/[C@H](OC)[C@H]2C)O5)C3=O)cc1 [UMN37]	0.15	0.034	0.031	–	–	–
CO[C@H]1/C=C/O[C@@]2(C)Oc3c(C)c(O)c4c(c3C2=O)C2=NC3(CCN(CC(C)C)CC3)NC2=C(NC(=O)/C(C)=C/C=C/[C@H](C)[C@H](O)[C@@H](C)[C@@H](O)[C@@H](C)[C@H](OC(=O)Nc2ccccc2C)[C@@H]1C)C4=O [UMN39]	–	0.017	0.014	0.1	0.13	0.014 (≈ 0.0131 µg/mL)
CO[C@H]1/C=C/O[C@@]2(C)Oc3c(C)c(O)c4c(c3C2=O)C2=NC3(CCN(CC(C)C)CC3)NC2=C(NC(=O)/C(C)=C/C=C/[C@H](C)[C@H](O)[C@@H](C)[C@@H](O)[C@@H](C)[C@H](OC(=O)NCc2cc(-c3ccccc3)no2)[C@@H]1C)C4=O [UMN40]	0.12	0.03	0.035	–	–	–
COc1cccc(NC(=O)O[C@H]2[C@H](C)[C@H](O)[C@H](C)[C@@H](O)[C@@H](C)/C=C/C=C(\C)C(=O)NC3=C4NC5(CCN(CC(C)C)CC5)N=C4c4c(c(O)c(C)c5c4C(=O)[C@@](C)(O/C=C/[C@H](OC)[C@H]2C)O5)C3=O)c1 [UMN42]	0.09	0.03	0.025	–	–	–
CO[C@H]1/C=C/O[C@@]2(C)Oc3c(C)c(O)c4c(c3C2=O)C2=NC3(CCN(CC(C)C)CC3)NC2=C(NC(=O)/C(C)=C/C=C/[C@H](C)[C@H](O)[C@@H](C)[C@@H](O)[C@@H](C)[C@H](OC(=O)Nc2ccc(C)cc2)[C@@H]1C)C4=O [UMN43]	0.05	0.03	0.05	–	–	–
CO[C@H]1/C=C/O[C@@]2(C)Oc3c(C)c(O)c4c(c3C2=O)C2=NC3(CCN(CC(C)C)CC3)NC2=C(NC(=O)/C(C)=C/C=C/[C@H](C)[C@H](O)[C@@H](C)[C@@H](O)[C@@H](C)[C@H](OC(=O)c2nccs2)[C@@H]1C)C4=O [UMN45]	1.89	0.017	0.017	–	–	–
CO[C@H]1/C=C/O[C@@]2(C)Oc3c(C)c(O)c4c(c3C2=O)C2=NC3(CCN(CC(C)C)CC3)NC2=C(NC(=O)/C(C)=C/C=C/[C@H](C)[C@H](O)[C@@H](C)[C@@H](O)[C@@H](C)[C@H](OC(=O)N2CCN(CC(C)C)CC2)[C@@H]1C)C4=O [UMN53]	0.20	0.02	0.027	–	–	–
CO[C@H]1/C=C/O[C@@]2(C)Oc3c(C)c(O)c4c(c3C2=O)C2=NC3(CCN(CC(C)C)CC3)NC2=C(NC(=O)/C(C)=C/C=C/[C@H](C)[C@H](O)[C@@H](C)[C@@H](O)[C@@H](C)[C@H](OC(=O)Nc2ccncn2)[C@@H]1C)C4=O [UMN56]	5.50	0.05	0.048	–	–	–
CO[C@H]1/C=C/O[C@@]2(C)Oc3c(C)c(O)c4c(c3C2=O)C2=NC3(CCN(CC(C)C)CC3)NC2=C(NC(=O)/C(C)=C/C=C/[C@H](C)[C@H](O)[C@@H](C)[C@@H](O)[C@@H](C)[C@H](OC(=O)N2CCN(c3ccccc3)CC2)[C@@H]1C)C4=O [UMN58]	0.13	0.049	0.09	–	–	–
CO[C@H]1/C=C/O[C@@]2(C)Oc3c(C)c(O)c4c(c3C2=O)C2=NC3(CCN(CC(C)C)CC3)NC2=C(NC(=O)/C(C)=C/C=C/[C@H](C)[C@H](O)[C@@H](C)[C@@H](O)[C@@H](C)[C@H](OC(=O)N2CCCC2(C)C)[C@@H]1C)C4=O [UMN61]	0.17	0.052	0.08	–	–	–
CO[C@H]1/C=C/O[C@@]2(C)Oc3c(C)c(O)c4c(c3C2=O)C2=NC3(CCN(CC(C)C)CC3)NC2=C(NC(=O)/C(C)=C/C=C/[C@H](C)[C@H](O)[C@@H](C)[C@@H](O)[C@@H](C)[C@H](OC(=O)N2CCOCC2)[C@@H]1C)C4=O [UMN78]	–	0.040	0.16	–	–	–
CO[C@H]1/C=C/O[C@@]2(C)Oc3c(C)c(O)c4c(c3C2=O)C2=NC3(CCN(CC(C)C)CC3)NC2=C(NC(=O)/C(C)=C/C=C/[C@H](C)[C@H](O)[C@@H](C)[C@@H](O)[C@@H](C)[C@H](OC(=O)N2CCCC2)[C@@H]1C)C4=O [UMN79]	–	0.030	0.18	–	–	–
COC(=O)Cn1cc(CNC(=O)O[C@H]2[C@H](C)[C@H](O)[C@H](C)[C@@H](O)[C@@H](C)/C=C/C=C(\C)C(=O)NC3=C4NC5(CCN(CC(C)C)CC5)N=C4c4c(c(O)c(C)c5c4C(=O)[C@@](C)(O/C=C/[C@H](OC)[C@H]2C)O5)C3=O)nn1 [UMN84]	–	0.15	0.13	–	–	–
CO[C@H]1/C=C/O[C@@]2(C)Oc3c(C)c(O)c4c(c3C2=O)C2=NC3(CCN(CC(C)C)CC3)NC2=C(NC(=O)/C(C)=C/C=C/[C@H](C)[C@H](O)[C@@H](C)[C@@H](O)[C@@H](C)[C@H](OC(=O)N2CCNCC2)[C@@H]1C)C4=O [UMN86]	–	0.10	0.11	–	–	–
CO[C@H]1/C=C/O[C@@]2(C)Oc3c(C)c(O)c4c(c3C2=O)C2=NC3(CCN(CC(C)C)CC3)NC2=C(NC(=O)/C(C)=C/C=C/[C@H](C)[C@H](O)[C@@H](C)[C@@H](O)[C@@H](C)[C@H](OC(=O)NC2CC(C)(C)N(Cc3ccccc3)C(C)(C)C2)[C@@H]1C)C4=O [UMN87]	–	0.30	0.23	–	–	–
CO[C@H]1/C=C/O[C@@]2(C)Oc3c(C)c(O)c4c(c3C2=O)C2=NC3(CCN(CC(C)C)CC3)NC2=C(NC(=O)/C(C)=C/C=C/[C@H](C)[C@H](O)[C@@H](C)[C@@H](O)[C@@H](C)[C@H](OC(=O)NC2CC(C)(C)N(C)C(C)(C)C2)[C@@H]1C)C4=O [UMN91]	–	0.10	0.11	–	–	–
